Assay results: the supplement of paper PMC10307832

Legend:
Test in all cases: relative viability (nuclei count vs DMSO), 5 days (fraction); higher = more cells survive
COR-L23 = tested on: COR-L23
How it was run: (§1)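 Relative viability equals treated-well nuclei counts divided by vehicle-well nuclei counts. Counts came from 4× images of lung cancer cell lines grown in 1536-well plates for 5 days after pin-tool dosing on the day after seeding. Dosing used one drug alone or a fixed anchor-drug dose plus five library-drug doses (not always all listed) in √10 steps, and values are medians of duplicate plates.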

ChaGo-K-1 = tested on: ChaGo-K-1
How it was run: as §1

EMC-BAC-2 = tested on: EMC-BAC-2
How it was run: as §1

EPLC-272H = tested on: EPLC-272H
How it was run: as §1

H3255 = tested on: H3255
How it was run: as §1

HCC-44 = tested on: HCC-44
How it was run: as §1

HCC-827 = tested on: HCC-827
How it was run: as §1

LCLC-103H = tested on: LCLC-103H
How it was run: as §1

LU99A = tested on: LU99A
How it was run: as §1

NCI-H1395 = tested on: NCI-H1395
How it was run: as §1

NCI-H1563 = tested on: NCI-H1563
How it was run: as §1

NCI-H1651 = tested on: NCI-H1651
How it was run: as §1

NCI-H1793 = tested on: NCI-H1793
How it was run: as §1

NCI-H1944 = tested on: NCI-H1944
How it was run: as §1

NCI-H2023 = tested on: NCI-H2023
How it was run: as §1

NCI-H2085 = tested on: NCI-H2085
How it was run: as §1

NCI-H2087 = tested on: NCI-H2087
How it was run: as §1

NCI-H2405 = tested on: NCI-H2405
How it was run: as §1

NCI-H520 = tested on: NCI-H520
How it was run: as §1

NCI-H650 = tested on: NCI-H650
How it was run: as §1

NCI-H838 = tested on: NCI-H838
How it was run: as §1

SK-MES-1 = tested on: SK-MES-1
How it was run: as §1

## CC(=O)O[C@@]12CO[C@@H]1C[C@H](O)[C@@]1(C)C(=O)[C@H](O)C3=C(C)[C@@H](OC(=O)[C@H](O)[C@@H](NC(=O)OC(C)(C)C)c4ccccc4)C[C@@](O)([C@@H](OC(=O)c4ccccc4)[C@H]21)C3(C)C [Docetaxel] + COc1cccc2cc(-c3nc([C@H]4CC[C@H](C(=O)O)CC4)n4ncnc(N)c34)[nH]c12 [OSI-027] (partner 0.5 µM)
COR-L23; first compound 0.0002 µM
  relative viability: 0.715
COR-L23; first compound 0.000632 µM
  relative viability: 0.689
COR-L23; first compound 0.002 µM
  relative viability: 0.444
COR-L23; first compound 0.006325 µM
  relative viability: 0.147
COR-L23; first compound 0.02 µM
  relative viability: 0.116
ChaGo-K-1; first compound 0.0002 µM
  relative viability: 0.554
ChaGo-K-1; first compound 0.000632 µM
  relative viability: 0.459
ChaGo-K-1; first compound 0.002 µM
  relative viability: 0.301
ChaGo-K-1; first compound 0.006325 µM
  relative viability: 0.23
ChaGo-K-1; first compound 0.02 µM
  relative viability: 0.129
EMC-BAC-2; first compound 0.0002 µM
  relative viability: 0.424
EMC-BAC-2; first compound 0.000632 µM
  relative viability: 0.327
EMC-BAC-2; first compound 0.002 µM
  relative viability: 0.257
EMC-BAC-2; first compound 0.006325 µM
  relative viability: 0.25
EMC-BAC-2; first compound 0.02 µM
  relative viability: 0.172
EPLC-272H; first compound 0.0002 µM
  relative viability: 0.258
EPLC-272H; first compound 0.000632 µM
  relative viability: 0.235
EPLC-272H; first compound 0.002 µM
  relative viability: 0.228
EPLC-272H; first compound 0.006325 µM
  relative viability: 0.159
EPLC-272H; first compound 0.02 µM
  relative viability: 0.124
H3255; first compound 0.0002 µM
  relative viability: 0.66
H3255; first compound 0.000632 µM
  relative viability: 0.67
H3255; first compound 0.002 µM
  relative viability: 0.51
H3255; first compound 0.006325 µM
  relative viability: 0.369
H3255; first compound 0.02 µM
  relative viability: 0.277
HCC-44; first compound 0.0002 µM
  relative viability: 0.533
HCC-44; first compound 0.000632 µM
  relative viability: 0.591
HCC-44; first compound 0.002 µM
  relative viability: 0.269
HCC-44; first compound 0.006325 µM
  relative viability: 0.294
HCC-44; first compound 0.02 µM
  relative viability: 0.16
HCC-827; first compound 0.0002 µM
  relative viability: 0.783
HCC-827; first compound 0.000632 µM
  relative viability: 0.848
HCC-827; first compound 0.002 µM
  relative viability: 0.52
HCC-827; first compound 0.006325 µM
  relative viability: 0.226
HCC-827; first compound 0.02 µM
  relative viability: 0.169
LCLC-103H; first compound 0.0002 µM
  relative viability: 0.394
LCLC-103H; first compound 0.000632 µM
  relative viability: 0.528
LCLC-103H; first compound 0.002 µM
  relative viability: 0.343
LCLC-103H; first compound 0.006325 µM
  relative viability: 0.414
LCLC-103H; first compound 0.02 µM
  relative viability: 0.264
LU99A; first compound 0.0002 µM
  relative viability: 0.293
LU99A; first compound 0.002 µM
  relative viability: 0.29
LU99A; first compound 0.006325 µM
  relative viability: 0.247
LU99A; first compound 0.02 µM
  relative viability: 0.202
NCI-H1395; first compound 0.0002 µM
  relative viability: 0.609
NCI-H1395; first compound 0.000632 µM
  relative viability: 0.657
NCI-H1395; first compound 0.002 µM
  relative viability: 0.538
NCI-H1395; first compound 0.006325 µM
  relative viability: 0.373
NCI-H1395; first compound 0.02 µM
  relative viability: 0.272
NCI-H1563; first compound 0.0002 µM
  relative viability: 0.715
NCI-H1563; first compound 0.000632 µM
  relative viability: 0.79
NCI-H1563; first compound 0.002 µM
  relative viability: 0.738
NCI-H1563; first compound 0.006325 µM
  relative viability: 0.699
NCI-H1563; first compound 0.02 µM
  relative viability: 0.541
NCI-H1651; first compound 0.0002 µM
  relative viability: 0.627
NCI-H1651; first compound 0.000632 µM
  relative viability: 0.783
NCI-H1651; first compound 0.002 µM
  relative viability: 0.38
NCI-H1651; first compound 0.006325 µM
  relative viability: 0.14
NCI-H1651; first compound 0.02 µM
  relative viability: 0.0753
NCI-H1793; first compound 0.0002 µM
  relative viability: 0.282
NCI-H1793; first compound 0.000632 µM
  relative viability: 0.275
NCI-H1793; first compound 0.002 µM
  relative viability: 0.227
NCI-H1793; first compound 0.006325 µM
  relative viability: 0.181
NCI-H1793; first compound 0.02 µM
  relative viability: 0.15
NCI-H1944; first compound 0.0002 µM
  relative viability: 0.38
NCI-H1944; first compound 0.000632 µM
  relative viability: 0.423
NCI-H1944; first compound 0.002 µM
  relative viability: 0.26
NCI-H1944; first compound 0.02 µM
  relative viability: 0.139
NCI-H2023; first compound 0.0002 µM
  relative viability: 0.341
NCI-H2023; first compound 0.000632 µM
  relative viability: 0.339
NCI-H2023; first compound 0.002 µM
  relative viability: 0.131
NCI-H2023; first compound 0.006325 µM
  relative viability: 0.0963
NCI-H2023; first compound 0.02 µM
  relative viability: 0.0554
NCI-H2085; first compound 0.0002 µM
  relative viability: 0.718
NCI-H2085; first compound 0.000632 µM
  relative viability: 0.706
NCI-H2085; first compound 0.002 µM
  relative viability: 0.433
NCI-H2085; first compound 0.006325 µM
  relative viability: 0.316
NCI-H2085; first compound 0.02 µM
  relative viability: 0.272
NCI-H2087; first compound 0.0002 µM
  relative viability: 0.464
NCI-H2087; first compound 0.000632 µM
  relative viability: 0.359
NCI-H2087; first compound 0.002 µM
  relative viability: 0.142
NCI-H2087; first compound 0.006325 µM
  relative viability: 0.113
NCI-H2087; first compound 0.02 µM
  relative viability: 0.111
NCI-H2405; first compound 0.0002 µM
  relative viability: 0.666
NCI-H2405; first compound 0.000632 µM
  relative viability: 0.628
NCI-H2405; first compound 0.002 µM
  relative viability: 0.422
NCI-H2405; first compound 0.006325 µM
  relative viability: 0.333
NCI-H2405; first compound 0.02 µM
  relative viability: 0.255
NCI-H520; first compound 0.0002 µM
  relative viability: 0.209
NCI-H520; first compound 0.000632 µM
  relative viability: 0.259
NCI-H520; first compound 0.002 µM
  relative viability: 0.276
NCI-H520; first compound 0.006325 µM
  relative viability: 0.257
NCI-H520; first compound 0.02 µM
  relative viability: 0.153
NCI-H650; first compound 0.0002 µM
  relative viability: 0.436
NCI-H650; first compound 0.000632 µM
  relative viability: 0.375
NCI-H650; first compound 0.002 µM
  relative viability: 0.266
NCI-H650; first compound 0.006325 µM
  relative viability: 0.265
NCI-H650; first compound 0.02 µM
  relative viability: 0.181
NCI-H838; first compound 0.0002 µM
  relative viability: 0.331
NCI-H838; first compound 0.000632 µM
  relative viability: 0.422
NCI-H838; first compound 0.002 µM
  relative viability: 0.259
NCI-H838; first compound 0.006325 µM
  relative viability: 0.16
NCI-H838; first compound 0.02 µM
  relative viability: 0.134
SK-MES-1; first compound 0.0002 µM
  relative viability: 0.621
SK-MES-1; first compound 0.000632 µM
  relative viability: 0.506
SK-MES-1; first compound 0.002 µM
  relative viability: 0.276
SK-MES-1; first compound 0.006325 µM
  relative viability: 0.22
SK-MES-1; first compound 0.02 µM
  relative viability: 0.112
